According to PubChem BioAssay AID2060892 (Molecular Pharmacology Branch, DTP, NCI, 2025):

Test system: HOP-62 complex spheroids with HUVEC/MSC, viability
Assay: Anticancer human tumor HOP-62 cell line growth inhibition [RAS];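 also: spheroids exposed to agents for seven days before readout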;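 as to viability, T/C: 100% = DMSO vehicle control viability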
Conditions: for IC50: curve of first compound; for viability, T/C: stronger effect = lower value
In short: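 Agents were tested in combination matrices in half-log decrements from a top concentration at or near clinical Cmax (10 microM if undetermined). Targets were multi-cell spheroids of tumour lines plus HUVEC and MSC stromal cells.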

Structure (SMILES): CC1(C)CCC(Nc2ncc(C(F)(F)F)c(-c3c[nH]c4c(P(C)(C)=O)c(C#N)ccc34)n2)CN1 (centres undefined) + C#Cc1c(F)ccc2cc(O)cc(-c3ncc4c(N5CC6CCC(C5)N6)nc(OCC56CCCN5CC(F)C6)nc4c3F)c12
- IC50 (second compound 0.0316 µM): 2.01 nM
- IC50 (second compound 0.1 µM): 1.73 nM
- IC50 (second compound 0.316 µM): 2.05 nM
- IC50 (second compound 1 µM): 1.8 nM
- IC50 (second compound 3.16 µM): 1.33 nM
- IC50 (second compound 10 µM): < 0.949 nM
- viability, T/C (second compound 0.0316 µM, first compound 0.000949 µM): 76.3%
- viability, T/C (second compound 0.0316 µM, first compound 0.003 µM): 35.9%
- viability, T/C (second compound 0.0316 µM, first compound 0.00949 µM): 22.1%
- viability, T/C (second compound 0.0316 µM, first compound 0.03 µM): 24.1%
- viability, T/C (second compound 0.0316 µM, first compound 0.0949 µM): 27.6%
- viability, T/C (second compound 0.0316 µM, first compound 0.3 µM): 25.8%
- viability, T/C (second compound 0.1 µM, first compound 0.000949 µM): 72.1%
- viability, T/C (second compound 0.1 µM, first compound 0.003 µM): 30.1%
- viability, T/C (second compound 0.1 µM, first compound 0.00949 µM): 23.6%
- viability, T/C (second compound 0.1 µM, first compound 0.03 µM): 24%
- viability, T/C (second compound 0.1 µM, first compound 0.0949 µM): 25.8%
- viability, T/C (second compound 0.1 µM, first compound 0.3 µM): 28.5%
- viability, T/C (second compound 0.316 µM, first compound 0.000949 µM): 73.2%
- viability, T/C (second compound 0.316 µM, first compound 0.003 µM): 38.5%
- viability, T/C (second compound 0.316 µM, first compound 0.00949 µM): 21%
- viability, T/C (second compound 0.316 µM, first compound 0.03 µM): 21.6%
- viability, T/C (second compound 0.316 µM, first compound 0.0949 µM): 26%
- viability, T/C (second compound 0.316 µM, first compound 0.3 µM): 29.3%
- viability, T/C (second compound 1 µM, first compound 0.000949 µM): 75.3%
- viability, T/C (second compound 1 µM, first compound 0.003 µM): 29.9%
- viability, T/C (second compound 1 µM, first compound 0.00949 µM): 23.4%
- viability, T/C (second compound 1 µM, first compound 0.03 µM): 25%
- viability, T/C (second compound 1 µM, first compound 0.0949 µM): 26%
- viability, T/C (second compound 1 µM, first compound 0.3 µM): 25.2%
- viability, T/C (second compound 3.16 µM, first compound 0.000949 µM): 57.4%
- viability, T/C (second compound 3.16 µM, first compound 0.003 µM): 32.1%
- viability, T/C (second compound 3.16 µM, first compound 0.00949 µM): 26.4%
- viability, T/C (second compound 3.16 µM, first compound 0.03 µM): 24.7%
- viability, T/C (second compound 3.16 µM, first compound 0.0949 µM): 27.8%
- viability, T/C (second compound 3.16 µM, first compound 0.3 µM): 26.4%
- viability, T/C (second compound 10 µM, first compound 0.000949 µM): 47.8%
- viability, T/C (second compound 10 µM, first compound 0.003 µM): 30.8%
- viability, T/C (second compound 10 µM, first compound 0.00949 µM): 29.3%
- viability, T/C (second compound 10 µM, first compound 0.03 µM): 28.3%
- viability, T/C (second compound 10 µM, first compound 0.0949 µM): 31%
- viability, T/C (second compound 10 µM, first compound 0.3 µM): 33.9%

Structure (SMILES): CC(C)n1nc(-c2ccc3oc(N)nc3c2)c2c(N)ncnc21 + CCn1c(-c2cc(N3CCN(C)CC3)cnc2C(C)OC)c2c3cc(ccc31)-c1csc(n1)CC(NC(=O)C1CC1C)C(=O)N1CCCC(N1)C(=O)OCC(C)(C)C2
- IC50 (second compound 0.000949 µM): 32.8 nM
- IC50 (second compound 0.003 µM): 15.3 nM
- IC50 (second compound 0.00949 µM): 8.38 nM
- IC50 (second compound 0.03 µM): 0.644 nM
- IC50 (second compound 0.0949 µM): < 0.316 nM
- IC50 (second compound 0.3 µM): < 0.316 nM
- viability, T/C (second compound 0.000949 µM, first compound 0.000316 µM): 122%
- viability, T/C (second compound 0.000949 µM, first compound 0.001 µM): 111%
- viability, T/C (second compound 0.000949 µM, first compound 0.00316 µM): 71.4%
- viability, T/C (second compound 0.000949 µM, first compound 0.01 µM): 71.8%
- viability, T/C (second compound 0.000949 µM, first compound 0.0316 µM): 59.5%
- viability, T/C (second compound 0.000949 µM, first compound 0.1 µM): 28.3%
- viability, T/C (second compound 0.003 µM, first compound 0.000316 µM): 96.2%
- viability, T/C (second compound 0.003 µM, first compound 0.001 µM): 81.7%
- viability, T/C (second compound 0.003 µM, first compound 0.00316 µM): 59%
- viability, T/C (second compound 0.003 µM, first compound 0.01 µM): 65.4%
- viability, T/C (second compound 0.003 µM, first compound 0.0316 µM): 44.9%
- viability, T/C (second compound 0.003 µM, first compound 0.1 µM): 23.2%
- viability, T/C (second compound 0.00949 µM, first compound 0.000316 µM): 64.9%
- viability, T/C (second compound 0.00949 µM, first compound 0.001 µM): 56.1%
- viability, T/C (second compound 0.00949 µM, first compound 0.00316 µM): 58.6%
- viability, T/C (second compound 0.00949 µM, first compound 0.01 µM): 48.9%
- viability, T/C (second compound 0.00949 µM, first compound 0.0316 µM): 30.7%
- viability, T/C (second compound 0.00949 µM, first compound 0.1 µM): 24%
- viability, T/C (second compound 0.03 µM, first compound 0.000316 µM): 52.5%
- viability, T/C (second compound 0.03 µM, first compound 0.001 µM): 48.5%
- viability, T/C (second compound 0.03 µM, first compound 0.00316 µM): 40%
- viability, T/C (second compound 0.03 µM, first compound 0.01 µM): 32.6%
- viability, T/C (second compound 0.03 µM, first compound 0.0316 µM): 21.7%
- viability, T/C (second compound 0.03 µM, first compound 0.1 µM): 22.1%
- viability, T/C (second compound 0.0949 µM, first compound 0.000316 µM): 38.1%
- viability, T/C (second compound 0.0949 µM, first compound 0.001 µM): 36.4%
- viability, T/C (second compound 0.0949 µM, first compound 0.00316 µM): 35.8%
- viability, T/C (second compound 0.0949 µM, first compound 0.01 µM): 37.5%
- viability, T/C (second compound 0.0949 µM, first compound 0.0316 µM): 20.6%
- viability, T/C (second compound 0.0949 µM, first compound 0.1 µM): 24.6%
- viability, T/C (second compound 0.3 µM, first compound 0.000316 µM): 37.8%
- viability, T/C (second compound 0.3 µM, first compound 0.001 µM): 35%
- viability, T/C (second compound 0.3 µM, first compound 0.00316 µM): 34.4%
- viability, T/C (second compound 0.3 µM, first compound 0.01 µM): 27.7%
- viability, T/C (second compound 0.3 µM, first compound 0.0316 µM): 26.5%
- viability, T/C (second compound 0.3 µM, first compound 0.1 µM): 24.8%
